Assay results: PMC6403271, “Characterization, mechanism of action and optimization of activity of a novel peptide-peptoid hybrid against bacterial pathogens involved in canine skin infections” (Scientific Reports, 2019)
Square brackets hold non-standard residues; d marks the D form. Ends that are not written are not given here. Peptide text beside a SMILES is read from it. 2Nal = N[C@@H](Cc1ccc2ccccc2c1)C(=O)O; Nlys = NCCCCNCC(=O)O

Key:
[1] = tested on: MSSA (ATCC 29213); type: cell-based, Staphylococcus aureus; conditions: ATCC 29213, 18 h
Description: (§1) Activity of B1 was tested on 50P. aeruginosa isolates and 57S. pseudintermedius isolates (including 7 MRSP) that had been isolated in the diagnostic laboratory Sund Vet Diagnostik (University of Copenhagen) from various infections in dogs between 2009 and 2011. Representative MRSP (C22963), MSSA, and P. aeruginosa (26314) were used for testing the first set of B1 analogues.
(§2) MIC determination was performed by broth microdilution according to the Clinical and Laboratory Standard Institute (CLSI, M31-A3, 2008)[62]. In brief, each bacterial strain was diluted to concentration of 5 × 10^5 CFU/mL in Mueller Hinton broth II (MHB II) media (Oxoid) and added to a two-fold serial dilution of peptides and peptide-peptoid hybrids concentrations ranging from 1 to 64 µg/ml in 96-well plates (Nunc Internationals, Rochester, NY). The MICs were determined as a lowest concentration showing no visible growth after incubation for 18 hours at 37 °C. Experiments were performed in triplicates on two different days.

[2] = tested on: human red blood cells; type: cell-based
Description: (§3) Briefly, two-fold serial dilutions (2.35 to 150 μM) of compounds in phosphate buffer saline (PBS) were mixed with equal volume of 0.5% v/v suspension of fresh human red blood cells (RBC) in the same buffer. After 1 h incubation at 37 °C, plates were centrifuged and aliquots of the supernatants were transferred to clear 96-well plates. Absorbance at 414 nm was measured and normalized using a negative (PBS, 0%) and a positive (melittin, 100%) control. The EC10 and EC50 are concentrations at which 10% and 50% of RBC were lysed, respectively, as interpolated graphically by the y-axis intersection of the plotted data.

[3] = type: cell-based, human; conditions: human
Description: as §3

[4] = tested on: MRSP C22963; type: cell-based, Staphylococcus pseudintermedius; conditions: 18 h
Description: as §1, §2

[5] = tested on: P. aeruginosa (26314); type: cell-based, Pseudomonas aeruginosa; conditions: 26314, 18 h
Description: Activity of B1 was tested on […]. aeruginosa isolates and […]. pseudintermedius isolates (including 7 MRSP) that had been isolated in the diagnostic laboratory Sund Vet Diagnostik (University of Copenhagen) from various infections in dogs between 2009 and 2011. Representative […], and P. aeruginosa (26314) were used for testing the first set of B1 analogues. For antibacterial spectrum the following strains were used: Corynebacterium auriscanis, 31551, (54 C6, dog, ear, 2013); Enterococcus faecalis, 27404, (17 C7, dog, wound, 2011); Enterococcus faecium, 30951, (24 C1, dog, ear, 2013); Streptococcus canis, 26740-1, (14 H1, dog, ear, 2010); Staphylococcus aureus, 27266, (16 G9, dog, skin, 2010); Staphylococcus aureus, 27266, (16 G9, dog, skin, 2010); Staphylococcus pseudintermedius 22963, (3 B9, dog, 2007). Acinetobacter baumannii, 27065, (16 D1, dog, wound, 2010); E. coli, 30235, 23 A6, dog, wound, 2012; Klebsiella pneumoniae, 26233, (11 H5, dog, wound, 2010); Pasteurella canis, 31096, (24 C8, dog, skin, 2013); Proteus mirabilis, 25178, (9 A4, dog, ear, 2009); Pseudomonas aeruginosa 26314, 12 C5, dog, urine, 2010). MIC determination was performed by broth microdilution according to the Clinical and Laboratory Standard Institute (CLSI, […]-A3, 2008)[62]. In brief, each bacterial strain was diluted to concentration of 5 × 10^5 CFU/mL in Mueller Hinton broth II (MHB II) media (Oxoid) and added to a two-fold serial dilution of peptides and peptide-peptoid hybrids concentrations ranging from 1 to 64 μg/ml in 96-well plates (Nunc Internationals, Rochester, NY). The MICs were determined as a lowest concentration showing no visible growth after incubation for 18 hours at 37 °C. Experiments were performed in triplicates on two different days.

[6] = tested on: MRSP E104; experiment: High-throughput growth curves (BioScreen); type: cell-based, Staphylococcus pseudintermedius; conditions: growth curve analysis
Description: The effects of B1 on the growth of a reference MRSP strain (ST71, E104) were evaluated using BioScreen (Oy Growth Curves Ab LTd, Finland). A well characterized antimicrobial peptide, Nisin, was used as a positive control. […] The OD600 of each micro-culture was measured and recorded every 15 min after a 5 second pause of shaking in automatic mode. The recorded ODs were plotted against time to prepare the growth curves. The assay was performed with technical and biological replicates, and one representative result was presented.

[7] = tested on: DNA synthesis in MRSP E104; experiment: Macromolecule biosynthesis rate, DNA (3H-Thymidine); type: cell-based, Staphylococcus pseudintermedius; conditions: MRSP E104, 1.25 µg/ml, 20 min
Description: (§4) Macromolecule biosynthesis rate was measured in MRSP E104 following a protocol adapted from Ling et al.[65]. Briefly, E104 overnight culture was sub-cultured 1:100 in MHB II and grown up to OD 0.2 at 600 nm. Cells were pelleted down by centrifugation and resuspended in fresh medium followed by incubation for 20 min with B1 or nisin at 1.5 µg/ml and 1.25 µg/ml, respectively, and radiolabeled precursor: (50µCi) 3H-Thymidine (PerkinElmer) and (5µCi) 3H-glucosamine hydrochloride per ml for DNA and cell wall, respectively. A positive control without antimicrobial was maintained. After incubation, samples were precipitated with equal volume of cold 30% TCA (Sigma) on ice. Precipitates were filtered on a membrane filter and subsequently subjected to two washes of cold 15% TCA and two washes of cold water using vacuum manifold. Subsequently, filters were air dried overnight and then transferred to 10 ml scintillation vials. Finally, scintillation fluid (3 ml) was added to each vial and ^3H count was taken in Beckman Coulter LS6500 liquid scintillation counter for one minute. The radioactive counts of the control samples were considered to have 100% precursor incorporation and macromolecule synthesis. The percentage rates of the antimicrobial-exposed samples were calculated accordingly. Each experiment was performed with replicates and the average rates of incorporation were plotted.

[8] = tested on: cell wall synthesis in MRSP E104; experiment: Macromolecule biosynthesis rate, cell wall (3H-glucosamine); type: cell-based, Staphylococcus pseudintermedius; conditions: MRSP E104, 1.25 µg/ml, 20 min
Description: as §4

[9] = tested on: membrane potential of MRSP E104; experiment: DiSC3(5) fluorescence-based membrane potential study; type: cell-based, Staphylococcus pseudintermedius; conditions: MRSP E104, nisin treatment
Description: Freshly sub-cultured E104 cells were labelled with 1 µM 3,3-Dipropylthiadicarbocyanine iodide [DiSC3(5)] (Sigma) in MHB II. The fluorescence spectra of labelled cells were plotted in the LS50B luminescence spectrometer (PerkinElmer) at excitation/emission wavelengths 546 nm/573 nm using time drive application of FLWINLAB software. After reading an initial stable emission spectra of DiSC3(5), labelled cells were treated with B1 or nisin or protonophore CCCP at 1, 1.5 and 1.25 µg/ml, respectively and the change of fluorescence over time was recorded. The increment of DiSC3(5) fluorescence upon addition of antimicrobials or CCCP (FUafter-treatment – FUbefore-treatment) was plotted. This experiment was performed twice and each time with two technical replicates.

Compound | Minimum Inhibitory Concentration MSSA (ATCC 29213) [1] [µg/mL] | Haemolysis EC10 [2] [µM] | hemolysis at 1 h, 150 µM [3] [%] | Minimum Inhibitory Concentration MRSP C22963 [4] [µg/mL] | Minimum Inhibitory Concentration P. aeruginosa (26314) [5] [µg/mL] | MIC concentration (cell lysis) MRSP E104 [6] [µg/mL] | inhibition of DNA synthesis [7] [%] | inhibition of cell wall synthesis [8] [%] | membrane potential, DiSC3(5) fluorescence emission [9]
CC(C)C[C@H](NC(=O)CN(CCCCN)C(=O)CN(CCCCN)C(=O)CNCCCCN)C(=O)N[C@@H](Cc1ccc2ccccc2c1)C(=O)N[C@@H](Cc1ccccc1)C(=O)N[C@@H](Cc1ccc2ccccc2c1)C(N)=O [Compound 29, NLys-NLys-NLys-Leu-(2-Nal)Ala-Phe-(2-Nal)Ala] (H-[Nlys][Nlys][Nlys]L[2Nal]F[2Nal]-NH2; N-terminus assumed) | 16 to 32 | 9 | 46 | 4 to 8 | 32 | – | – | – | –
nisin (ITSISLCTPGCKTGALMGCNMKTATCHCSIHVSK; not fully specified (some residues, bridges); cysteine pairing not given here; also: lantibiotic nisin-A (post-translational modifications not given here); UniProt P13068 24-57, looked up) [well-characterized antimicrobial peptide used as control, reference compound] | – | – | – | – | – | 5 | 50 | 60 | no fluorescence increment
